From BindingDB's records for doi:10.1016/s0960-894x(99)00397-2 (Chungnam National University, 1999)

Biological target: DNA topoisomerase 1 (Bos taurus)
Test: Compound was evaluated for the inhibition of DNA topoisomerase-1 of calf thymus

Structure (SMILES): CCCCCCCC(O)c1cc(OC)c2c(c1OC)C(=O)C=CC2=O (stereo not given) [6-(1-Hydroxy-octyl)-5,8-dimethoxy-[1,4]naphthoquinone]
- IC50: 43.9 µM

Structure (SMILES): CCCCCC(O)c1cc(OC)c2c(c1OC)C(=O)C=CC2=O (stereo not given) [6-(1-Hydroxy-hexyl)-5,8-dimethoxy-[1,4]naphthoquinone]
- IC50: 39 µM

Structure (SMILES): CCC(O)c1cc(OC)c2c(c1OC)C(=O)C=CC2=O (stereo not given) [6-(1-Hydroxy-propyl)-5,8-dimethoxy-[1,4]naphthoquinone]
- IC50: 122 µM

Structure (SMILES): COc1cc(C(C)O)c(OC)c2c1C(=O)C=CC2=O (stereo not given) [6-(1-Hydroxy-ethyl)-5,8-dimethoxy-[1,4]naphthoquinone]
- IC50: 111 µM

Structure (SMILES): CCCCCCC(O)c1cc(OC)c2c(c1OC)C(=O)C=CC2=O (stereo not given) [6-(1-Hydroxy-heptyl)-5,8-dimethoxy-[1,4]naphthoquinone]
- IC50: 30.1 µM
